Data published in US20210283107A1, “Methods to Expand the Spectrum of Gram-Positive Antibiotics” (NORTH CAROLINA STATE UNIVERSITY, priority 2016, published 2021).
Where “and” joins values, the source holds several entries; their conditions need not be identical. Equal values may be shown once.

Experiments:
Assay type in all cases: cell-based, Acinetobacter baumannii
[1] = tested on: A. baumannii mutant AB522; assay: Dose dependent resistance suppression (antibiotic MIC with compound) in AB522
Experimental: There was no notable reduction in antibiotic MIC observed with either compound and both strains 522 and 1310. […] Even at the highest concentration, no potentiation was observed.
Day Cultures (6 h) were subcultured to 5×10^5 CFU/mL in cation adjusted Mueller-Hinton broth (CAMHB). […] One milliliter of the resulting solution was aliquoted into a separate culture tube and was dosed with antibiotic so that the resulting concentration was the highest desirable concentration to be tested. Bacteria treated with antibiotic alone were used as a control. Row one of a 96-well plate was filled with 200 μL of the antibiotic/compound solution, and the remaining rows were filled with 100 μL of the remaining 4 mL bacterial subculture. The wells in row one were mixed five times before 100 μL was transferred to the following row (row two). Row two was then mixed five times, and 100 μL was transferred to row three. This process was repeated until the second to last row had been reached. The last row is left unexposed to antibiotic in order to serve as a negative control. The antibiotic only treated bacteria was plated by aliquoting 200 μL of the treated bacteria into row one and filling the remaining rows with untreated bacteria from the original bacteria subculture. The rows were mixed in the same way as described above. Plates were covered with Glad Press n'Seal and were incubated under stationary conditions at 37° C. for 16 hours. MIC values were recorded as the lowest concentration at which no bacterial growth was observed. Fold reductions were determined by comparison of the compound treated wells with the antibiotic only treated control wells.

AB5075 [2] = assay: H33342 accumulation assay (efflux)
Experimental: In addition to the evaluation of the relationship between compounds 1 and 4 and colistin, the impact of compound 1 on efflux was evaluated using AB5075 and a bisBenzimide H33342 trihydrochloride (H33342) accumulation assay. Using a procedure adapted from Coldham et al. (A 96-well plate fluorescence assay for assessment of cellular permeability and active efflux in Salmonella enterica serovar Typhimurium and Escherichia coli. J Antimicrob Chemother, 2010. 65(8): p. 1655-63) and Richmond et al. (Efflux in Acinetobacter baumannii can be determined by measuring accumulation of H33342 (bis-benzamide). J Antimicrob Chemother, 2013. 68(7): p. 1594-600), the effect of no treatment, a known inhibitor carbonyl cyanide-m-chlorophenyl hydrazone (CCCP), and compound 1 on efflux was analyzed over 30 minutes and in two different treatment variations. Fluorescence was read using excitation and emission filters of 355 and 460 nm, and the values were processed in excel. The first analysis was performed immediately after treating the bacteria with compound 1 at both 10 and 30 μM and CCCP at 25 μM.
The second analysis was performed after exposing the bacteria to compound 1 at 30 μM for 5-hours shaking at 37° C.

A. baumannii strain 5075 = assay: Time kill curve; details: for growth similar to the control after: AB5075, time kill curve; for Initial toxicity seen until (time point): AB5075 growth, time kill curve
Experimental: A. baumannii strain 5075 was grown in the presence of compound 1 at either 20 μM or 30 μM, and samples were plated at 2, 4, 6, 8, and 24 hour time points. Initial toxicity was seen until the 4-hour time point for 20 μM and 8-hour time point for 30 μM; however, growth was similar to the control after 6 hours for 20 μM and 24 hours for 30 μM.
A. baumannii 5075 was grown overnight (16 hours) in CAMHB at 37° C. with shaking. This culture was then subcultured to 5×10^5 CFU/mL in fresh CAMHB. The inoculated media was aliquoted (3 mL) into culture tubes, and the compound was added from 100 mM stock solutions. Untreated inoculated culture tubes served as the control, and tubes were incubated at 37° C. with shaking. Samples were taken at 2, 4, 6, 8, and 24 hour time points and were serially diluted in fresh CAMHB and plated on LB agar. Plates were incubated under stationary conditions overnight at 37° C. After incubation, colonies were enumerated and growth curves were constructed.

AB5075 [3] = assay: Checkerboard assay for FIC determination with colistin; details: chequerboard, ΣFIC≥2 considered antagonistic
Experimental: Against AB5075, we determined that the ΣFIC with compound 1 to be 17 and the ΣFIC with compound 10 to be 33. These ΣFIC values indicate that both compounds are highly antagonistic with colistin as a ΣFIC≥2 is considered antagonistic.
Day Cultures (6 h) of A. baumannii 5075 were subcultured to 5×10^5 CFU/mL in cation adjusted Mueller-Hinton broth (CAMHB). 100 μL of the inoculated media was distributed into all wells of a 96-well plate except well 1A. Inoculated CAMHB (200 μL) containing compound (twice the highest concentration tested) was added to well 1A, and 100 μL of the same sample was added to wells 2A-12A. The contents in column A were mixed five times before 100 μL was transferred to column B. The contents of column B were mixed 5 times before transferring to column C. This process was repeated with the remainder of the columns up to column G. Column H was not mixed to allow determination of the antibiotic MIC alone. […] Row 12 was not mixed so that the MIC of the compound alone could be determined. The MICs of both compound and antibiotic alone were recorded, as well as the wells containing the combination. The ΣFICs were calculated as follows: ΣFIC=FIC (Compound)+FIC (antibiotic), where FIC (compound) is the MIC of the compound in the combination/MIC of the compound alone and the FIC (antibiotic) is the MIC of the antibiotic in combination/the MIC of the antibiotic alone. […]

Nc1nc(-c2ccc(NC(=O)c3cc(Cl)cc(Cl)c3)cc2)c[nH]1 [Compound 1]
Azithromycin MIC ([1]; compound Conc. Tested 2 (μM)): 8 µg/mL and 4 µg/mL | Clarithromycin MIC ([1]; compound Conc. Tested 2 (μM)): 1 µg/mL | Erythromycin MIC ([1]; compound Conc. Tested 2 (μM)): 2 µg/mL | Vancomycin MIC ([1]; compound Conc. Tested 2 (μM)): 64 µg/mL | Azithromycin MIC ([1]; compound Conc. Tested 3 (μM)): 4 µg/mL and 8 µg/mL | Clarithromycin MIC ([1]; compound Conc. Tested 3 (μM)): 1 µg/mL | Erythromycin MIC ([1]; compound Conc. Tested 3 (μM)): 2 µg/mL and 4 µg/mL | Vancomycin MIC ([1]; compound Conc. Tested 3 (μM)): 64 µg/mL | Azithromycin MIC ([1]; compound Conc. Tested 4 (μM)): 4 µg/mL | Clarithromycin MIC ([1]; compound Conc. Tested 4 (μM)): 1 µg/mL | Erythromycin MIC ([1]; compound Conc. Tested 4 (μM)): 4 µg/mL and 2 µg/mL | Vancomycin MIC ([1]; compound Conc. Tested 4 (μM)): 32 µg/mL | Azithromycin MIC ([1]; compound Conc. Tested 5 (μM)): 4 µg/mL | Clarithromycin MIC ([1]; compound Conc. Tested 5 (μM)): 0.5 µg/mL | Erythromycin MIC ([1]; compound Conc. Tested 5 (μM)): 2 µg/mL | Vancomycin MIC ([1]; compound Conc. Tested 5 (μM)): 32 µg/mL | H33342 accumulation, fluorescence at 355 and 460 nm (AB5075 [2]; 10 μM compound, immediately following exposure, time 0 minutes): 14,084.3 ± 2,839.3 | H33342 accumulation, fluorescence at 355 and 460 nm (AB5075 [2]; 10 μM compound, immediately following exposure, time 10 minutes): 12,812.4 ± 2,718.2 | H33342 accumulation, fluorescence at 355 and 460 nm (AB5075 [2]; 10 μM compound, immediately following exposure, time 20 minutes): 11,627.8 ± 3,119 | H33342 accumulation, fluorescence at 355 and 460 nm (AB5075 [2]; 10 μM compound, immediately following exposure, time 30 minutes): 12,147.8 ± 2,742.8 | H33342 accumulation, fluorescence at 355 and 460 nm (AB5075 [2]; 30 μM compound, following exposure for 5 hours, time 0 minutes): 12,226.7 ± 4,671.7 | H33342 accumulation, fluorescence at 355 and 460 nm (AB5075 [2]; 30 μM compound, following exposure for 5 hours, time 10 minutes): 15,247 ± 5,499.3 | H33342 accumulation, fluorescence at 355 and 460 nm (AB5075 [2]; 30 μM compound, following exposure for 5 hours, time 20 minutes): 25,603.1 ± 5,212.9 | H33342 accumulation, fluorescence at 355 and 460 nm (AB5075 [2]; 30 μM compound, following exposure for 5 hours, time 30 minutes): 33,441.1 ± 3,260.3 | H33342 accumulation, fluorescence at 355 and 460 nm (AB5075 [2]; 30 μM compound, immediately following exposure, time 0 minutes): 21,152.2 ± 5,161.7 | H33342 accumulation, fluorescence at 355 and 460 nm (AB5075 [2]; 30 μM compound, immediately following exposure, time 10 minutes): 21,651 ± 8,731.7 | H33342 accumulation, fluorescence at 355 and 460 nm (AB5075 [2]; 30 μM compound, immediately following exposure, time 20 minutes): 19,748.3 ± 9,182.4 | H33342 accumulation, fluorescence at 355 and 460 nm (AB5075 [2]; 30 μM compound, immediately following exposure, time 30 minutes): 19,562.4 ± 9,574 | H33342 fluorescence versus untreated (AB5075 [2]; after exposure to compound at 30 μM for 5 hours): comparable fluorescence values | change in H33342 fluorescence over 30 minutes (AB5075 [2]; immediately after treating, compound 1 at both 10 and 30 μM, CCCP at 25 μM): a decrease in fluorescence | growth similar to the control after (A. baumannii strain 5075; compound alone at 20 μM): 6 h | Initial toxicity seen until (time point) (A. baumannii strain 5075; compound alone at 20 μM): 4 h | growth similar to the control after (A. baumannii strain 5075; compound alone at 30 μM): 24 h | Initial toxicity seen until (time point) (A. baumannii strain 5075; compound alone at 30 μM): 8 h | ΣFIC with colistin (AB5075 [3]): 17
